Source: patent US10538554B2, “Peptides and uses therefor as antiviral agents” (priority 2015, dated 2020)
Bridge positions count the residues as written; N and C are the ends. Square brackets hold non-standard residues; d marks the D form. Peptide text beside a SMILES is read from it.

Columns and labels:
[1] = system: H9N2 A/Iran/16/2000; conditions: 48 h, 10 μM
[2] = system: H1N1 A1/Malaysia/302/1954; conditions: A1/Malaysia/302/1954, 48 h, 10 μM
[3] = system: H3N8 A/Miami/2/63; conditions: A/Miami/2/63, 48 h, 10 μM
[4] = system: H3N2 A/HK/8/1968; conditions: A/HK/8/1968, 48 h, 10 μM
[5] = system: H1N1 A/NY/18/2009; conditions: A/NY/18/2009, 48 h, 10 μM
[6] = system: H1N1 A/PR/8/1934; conditions: A/PR/8/1934, 48 h, 10 μM

SMILES | % inhibition H9N2 [1] [%] | % inhibition H1N1 [2] [%] | % inhibition H3N8 [3] [%] | % inhibition H3N2 [4] [%] | % Inhibition Pdm 2009 [5] [%] | % Inhibition PR/8 [6] [%]
CC[C@@H](C)[C@H]1NC(=O)[C@@H](Cc2ccccc2)NC(=O)[C@@H](CS)NC(=O)[C@@H](Cc2ccccc2)NC(=O)[C@@H](Cc2c[nH]c3ccccc23)NC(=O)[C@@H]([C@H](C)O)NC(=O)[C@H](NC(=O)[C@H](CCCCN)NC(=O)[C@H](CCCCN)NC(=O)[C@H](CCCNC(=N)N)NC(=O)[C@@H](N)CCCNC(=N)N)CSSC[C@H](C(=O)O)NC(=O)[C@@H](CC(N)=O)NC1=O [PSP IV A2, H-RRKKctwfcfinc-OH] (H-RRKK[dC][dT][dW][dF][dC][dF][dI][dN][dC]-OH; disulfide 5-13) | 64 | 60 | 76 | 82 | 68 | 68
CC[C@@H](C)[C@H]1NC(=O)[C@@H](Cc2ccccc2)NC(=O)[C@H]2CCCN2C(=O)[C@@H](Cc2ccccc2)NC(=O)[C@@H](Cc2c[nH]c3ccccc23)NC(=O)[C@@H]([C@H](C)O)NC(=O)[C@H](NC(=O)[C@H](CCCCN)NC(=O)[C@H](CCCCN)NC(=O)[C@H](CCCNC(=N)N)NC(=O)[C@@H](N)CCCNC(=N)N)CSSC[C@H](C(=O)O)NC(=O)[C@@H](CC(N)=O)NC1=O [PSP IV A13, H-RRKKctwfpfinc-OH] (H-RRKK[dC][dT][dW][dF][dP][dF][dI][dN][dC]-OH; disulfide 5-13) | 55 | 52 | 69 | 74 | 65 | 66
CC[C@@H](C)[C@H]1NC(=O)[C@@H](Cc2ccccc2)NC(=O)[C@@H](CCCCN)NC(=O)[C@@H](Cc2ccccc2)NC(=O)[C@@H](Cc2c[nH]c3ccccc23)NC(=O)[C@@H]([C@H](C)O)NC(=O)[C@H](NC(=O)[C@H](CCCCN)NC(=O)[C@H](CCCCN)NC(=O)[C@H](CCCNC(=N)N)NC(=O)[C@@H](N)CCCNC(=N)N)CSSC[C@H](C(=O)O)NC(=O)[C@@H](CC(N)=O)NC1=O [PSP IV A9, H-RRKKctwfkfinc-OH] (H-RRKK[dC][dT][dW][dF][dK][dF][dI][dN][dC]-OH; disulfide 5-13) | 39 | 56 | 79 | 73 | 66 | 74
CC[C@@H](C)[C@H]1NC(=O)[C@@H](Cc2ccccc2)NC(=O)[C@@H](CCC(N)=O)NC(=O)[C@@H](Cc2ccccc2)NC(=O)[C@@H](Cc2c[nH]c3ccccc23)NC(=O)[C@@H]([C@H](C)O)NC(=O)[C@H](NC(=O)[C@H](CCCCN)NC(=O)[C@H](CCCCN)NC(=O)[C@H](CCCNC(=N)N)NC(=O)[C@@H](N)CCCNC(=N)N)CSSC[C@H](C(=O)O)NC(=O)[C@@H](CC(N)=O)NC1=O [PSP IV A14, H-RRKKctwfqfinc-OH] (H-RRKK[dC][dT][dW][dF][dQ][dF][dI][dN][dC]-OH; disulfide 5-13) | 68 | 66 | 83 | 83 | 74 | 77
CC[C@@H](C)[C@H]1NC(=O)[C@@H](Cc2ccccc2)NC(=O)[C@@H](CCSC)NC(=O)[C@@H](Cc2ccccc2)NC(=O)[C@@H](Cc2c[nH]c3ccccc23)NC(=O)[C@@H]([C@H](C)O)NC(=O)[C@H](NC(=O)[C@H](CCCCN)NC(=O)[C@H](CCCCN)NC(=O)[C@H](CCCNC(=N)N)NC(=O)[C@@H](N)CCCNC(=N)N)CSSC[C@H](C(=O)O)NC(=O)[C@@H](CC(N)=O)NC1=O [PSP IV A11, H-RRKKctwfmfinc-OH] (H-RRKK[dC][dT][dW][dF][dM][dF][dI][dN][dC]-OH; disulfide 5-13) | 84 | 89 | 93 | 90 | 88 | 85
CC[C@@H](C)[C@H]1NC(=O)[C@@H](Cc2ccccc2)NC(=O)[C@@H](C(C)C)NC(=O)[C@@H](Cc2ccccc2)NC(=O)[C@@H](Cc2c[nH]c3ccccc23)NC(=O)[C@@H]([C@H](C)O)NC(=O)[C@H](NC(=O)[C@H](CCCCN)NC(=O)[C@H](CCCCN)NC(=O)[C@H](CCCNC(=N)N)NC(=O)[C@@H](N)CCCNC(=N)N)CSSC[C@H](C(=O)O)NC(=O)[C@@H](CC(N)=O)NC1=O [PSP IV A18, H-RRKKctwfvfinc-OH] (H-RRKK[dC][dT][dW][dF][dV][dF][dI][dN][dC]-OH; disulfide 5-13) | 95 | 84 | 96 | 96 | 97 | 96
CC[C@@H](C)[C@H]1NC(=O)[C@@H](Cc2ccccc2)NC(=O)[C@@H](Cc2c[nH]c3ccccc23)NC(=O)[C@@H](Cc2ccccc2)NC(=O)[C@@H](Cc2c[nH]c3ccccc23)NC(=O)[C@@H]([C@H](C)O)NC(=O)[C@H](NC(=O)[C@H](CCCCN)NC(=O)[C@H](CCCCN)NC(=O)[C@H](CCCNC(=N)N)NC(=O)[C@@H](N)CCCNC(=N)N)CSSC[C@H](C(=O)O)NC(=O)[C@@H](CC(N)=O)NC1=O [PSP IV A19, H-RRKKctwfwfinc-OH] (H-RRKK[dC][dT][dW][dF][dW][dF][dI][dN][dC]-OH; disulfide 5-13) | 95 | 87 | 94 | 94 | 94 | 90
CC[C@@H](C)[C@H]1NC(=O)[C@@H](Cc2ccccc2)NC(=O)[C@@H](Cc2ccc(O)cc2)NC(=O)[C@@H](Cc2ccccc2)NC(=O)[C@@H](Cc2c[nH]c3ccccc23)NC(=O)[C@@H]([C@H](C)O)NC(=O)[C@H](NC(=O)[C@H](CCCCN)NC(=O)[C@H](CCCCN)NC(=O)[C@H](CCCNC(=N)N)NC(=O)[C@@H](N)CCCNC(=N)N)CSSC[C@H](C(=O)O)NC(=O)[C@@H](CC(N)=O)NC1=O [PSP IV A20, H-RRKKctwfyfinc-OH] (H-RRKK[dC][dT][dW][dF][dY][dF][dI][dN][dC]-OH; disulfide 5-13) | 85 | 79 | 89 | 89 | 79 | 85
CC[C@@H](C)[C@H]1NC(=O)[C@@H](Cc2ccccc2)NC(=O)[C@@H](C)NC(=O)[C@@H](Cc2ccccc2)NC(=O)[C@@H](Cc2c[nH]c3ccccc23)NC(=O)[C@@H]([C@H](C)O)NC(=O)[C@H](NC(=O)[C@H](CCCCN)NC(=O)[C@H](CCCCN)NC(=O)[C@H](CCCNC(=N)N)NC(=O)[C@@H](N)CCCNC(=N)N)CSSC[C@H](C(=O)O)NC(=O)[C@@H](CC(N)=O)NC1=O [PSP IV A1, H-RRKKctwfafinc-OH] (H-RRKK[dC][dT][dW][dF][dA][dF][dI][dN][dC]-OH; disulfide 5-13) | 77 | 78 | 83 | – | 78 | –
